According to US6989377B2, “Treating vitamin D responsive diseases” (priority 1999, dated 2006):
Like-named read-outs stand apart in the source and are kept apart here.

Legend:
[1] = tested on: 129x1/SvJ male mice; test: Serum calcium after calcitriol feeding, 129x1/SvJ male mice; format: in vivo, mouse
Experimental: (§1) In order to determine serum calcium, blood was collected, allowed to clot, and centrifuged (5,000×g for 10 minutes) at 6° C. The serum was decanted and stored frozen at −20° C. The samples, standards, and buffer blanks (2 μL each) were aliquoted into duplicate wells of a 96-well plate. Calcium reagent working solution (0.25 mL), prepared according to the manufacturer's directions (Sigma Diagnostics, St. Louis, Mo.), was added to each well, and the absorbance at 570 nm was measured.

[2] = tested on: C3H/HeJ male mice; test: Serum calcium after calcitriol feeding, C3H/HeJ male mice; format: in vivo, mouse
Experimental: as §1

[3] = tested on: B6×129-IL-10−/− mice; conditions: for Serum Calcium B6x129-IL-10−/− female (mg/dL): analyzed when mice lost 15% of body weight; for Serum Calcium B6x129-IL-10−/− male (mg/dL): analyzed four weeks later
Experimental: The calcitriol feeding was resumed at a lower dose (20 ng/d) at age 16 weeks. […] The calcitriol feeding was resumed at a lower dose (10 ng/d) at age 18 weeks.
Four weeks later, the serum calcium levels were measured (Table 10).

[4] = tested on: DS-induced colitis in C3H/HeJ male mice; test: Calcitriol prevention of DS-induced colitis; format: in vivo, mouse; conditions: 50 ng/day in diet from day −7; 1% DS days 0 to 5; terminated day 27
[5] = female, dose gradually reduced, age 24 weeks
[6] = female, dose gradually reduced, terminated at age 24 weeks
[7] = male, 50 ng/d, terminated at age 19 weeks

C=C1/C(=C\C=C2/CCC[C@]3(C)[C@@H]([C@H](C)CCCC(C)(C)O)CC[C@@H]23)C[C@@H](O)C[C@@H]1O [Calcitriol, 1,25 dihydroxyvitamin D3]
Serum Calcium 129x1/SvJ male ([1]; 10 ng/d for two weeks): 12.4 ± 0.6 mg/dL | Serum Calcium 129x1/SvJ male ([1]; 20 ng/d for two weeks): 11.5 ± 0.1 mg/dL | Serum Calcium 129x1/SvJ male ([1]; 50 ng/d for two weeks): 11.5 ± 0.4 mg/dL | Serum Calcium 129x1/SvJ male ([1]; 100 ng/d for two weeks): 11.1 ± 1.1 mg/dL | Tolerability of the calcitriol doses ([1]; mouse, in vivo): well tolerated | Serum Calcium C3H/HeJ male ([2]; 10 ng/d for two weeks): 10.5 ± 2.1 mg/dL | Serum Calcium C3H/HeJ male ([2]; 20 ng/d for two weeks): 10.1 ± 2.7 mg/dL | Serum Calcium C3H/HeJ male ([2]; 50 ng/d for two weeks): 9.9 ± 0.6 mg/dL | Serum Calcium C3H/HeJ male ([2]; 100 ng/d for two weeks): 10.1 ± 1.8 mg/dL | Tolerability of the calcitriol doses ([2]; mouse, in vivo): well tolerated | Effect on spontaneous colitis ([3]; 50 ng/d, colitis severity scores vs mock-treated not significantly different): did not inhibit spontaneous colitis | Serum Calcium B6x129-IL-10−/− female (mg/dL) ([3]; female, 10 ng/d): 12.5 ± 1.5 mg/dL | Serum Calcium B6x129-IL-10−/− female (mg/dL) ([3]; female, 20 ng/d): 13.0 ± 3.0 mg/dL | Serum Calcium B6x129-IL-10−/− female (mg/dL) ([3]; female, 50 ng/d): 12.9 ± 2.4 mg/dL | Peak fecal hemoglobin ([3]; female, calcitriol from age 7 weeks, dose gradually reduced, terminated at age 24 weeks): 0 ± 0 mg/g | Colon Histopathology, Distal colon [3, 5]: 3.3 ± 0.5 | Colon Histopathology, Middle colon [3, 5]: 3.3 ± 0.5 | Colon Histopathology, Rectum + anus [3, 5]: 2.8 ± 1.9 | Colon histopathology, Proximal colon [3, 5]: 3.9 ± 0.3 | Colon histopathology, Sum [3, 5]: 13.1 ± 2.7 | Terminal Serum Ca [3, 6]: 12.5 ± 1.5 mg/dL | Terminal weight [3, 6]: 19.5 ± 1.5 g | Weight lost ([3]; female, feeding resumed at 20 ng/d at age 16 weeks): 15% | Serum Calcium B6x129-IL-10−/− male (mg/dL) ([3]; male, 10 ng/d): 15.8 ± 2.1 mg/dL | Serum Calcium B6x129-IL-10−/− male (mg/dL) ([3]; male, 20 ng/d): 14.4 ± 1.0 mg/dL | Peak fecal hemoglobin ([3]; male, 50 ng/d from age 7 weeks, terminated at age 19 weeks): 0 ± 0 mg/g | Colon Histopathology, Distal colon ([3]; male, 50 ng/d, age 19 weeks): 3.0 ± 0.0 | Colon Histopathology, Middle colon ([3]; male, 50 ng/d, age 19 weeks): 1.7 ± 1.2 | Colon Histopathology, Rectum + anus ([3]; male, 50 ng/d, age 19 weeks): 2.7 ± 0.6 | Colon histopathology, Proximal colon ([3]; male, 50 ng/d, age 19 weeks): 3.7 ± 0.6 | Colon histopathology, Sum ([3]; male, 50 ng/d, age 19 weeks): 11.1 ± 1.0 | Serum Calcium B6x129-IL-10−/− male (mg/dL) ([3]; male, 50 ng/d): 16.0 ± 3.5 mg/dL | Terminal Serum Ca [3, 7]: 15.6 ± 2.5 mg/dL | Terminal weight [3, 7]: 19.7 ± 0.9 g | Mortality of male mice ([3]; male, 100 ng/d from age 7 weeks): died abruptly at age 15 weeks | Hypercalcemia ([3]; male, graded (very low) doses from age 7 weeks, four weeks): severe hypercalcemia | Terminal weight [4]: 28.0 ± 2.9 g
